Like-named read-outs stand apart in the source and are kept apart here.
What was measured:
[1] = Critical micelle concentration, Wilhelmy plate method; type: physicochemical; settings: 60 °C
Protocol: The critical micelie concentration (CMC) is defined as the concentration at which a surfactant forms micelles in aqueous solution. Micellization is the preferred interfacial phenomena, since certain surfactant benefits such as detergency (the solubilization of soils), foaming, wetting or emulsification depend on the formation of these aggregates in solution.
The CMC value of C8 /C10 oxypropyl D-gluconamide was determined by plotting surface tension as a function of log(concentration) and extrapolating linear points to obtain an intersection point. The concentration at this point was taken as the CMC. The technique used was the Wilhelmy plate method and the instrument used was a Lauda Auto-Tensiometer. While wishing not to be bound to theory, it is believed that surfactants with low CMC values form micelles more readily at lower concentrations than those with high CMC values.

[2] = Water solubility (statements); type: physicochemical
Krafft point = type: physicochemical; settings: 0.1% in water
Protocol: The temperature at and above which surfactants begin to form micelles instead of precipitates is referred to as the Krafft point (Tk) and at this temperature the solubility of a surfactant becomes equal to its CMC (numerical value at which micelles are formed).
The Krafft point was measured by preparing 650 ml of a 0.1% or 1.0% dispersion of aldonamide in water by weight. If the surfactant was soluble at room temperature, the solution was slowly cooled to 0° C. […] (less than zero). If it precipitated out of solution, the temperature at which precipitation occurs was taken as the Krafft point.
If the surfactant was insoluble at room temperature, the dispersion was slowly heated until the solution became homogeneous. It was then slowly cooled until precipitation occurred. The temperature at which the surfactant precipitates out of solution upon cooling was taken as the Krafft point.

[3] = Effectiveness in reducing surface tension (surface pressure at CMC); type: physicochemical; settings: 60 °C
Text: As mentioned before, surface tension reduction depends on the replacement of water molecules at the interface by surfactant molecules, therefore the effectiveness of a surfactant in reducing interfacial surface tension should reflect the saturated concentration of surfactant at the interface relative to that in bulk liquid phase. During this process the surface tension of water steadily decreases as bulk phase surfactant concentration increases. This will continue until the concentration reaches the critical micelle concentration (CMC), above which the surface tension remains nearly unchanged and the interface is saturated with surfactant. The surface tension at the CMC is therefore very close to the minimum interfacial tension or maximum surface pressure that the system can achieve. The surface pressure at this point, IIcmc, is a suitable measure of the effectiveness of a surfactant in reducing surface tension and is given as:
IIcmc =20+2.3nRT(Γmax) log[CMC/C20 ]
n=1 which represents the number of ions whose surface concentration changes with the change in liquid phase surfactant concentration.
CMC/C20 =is the ratio of the critical micelie concentration to the bulk phase surfactant concentration necessary to reduce the surface tension of water by 20 dyn/cm.

[4] = 25 °C; cited from earlier work
[5] = cited from earlier work
[6] = cited from earlier work; remark: listed apart in the source
[7] = Effectiveness of adsorption (surface excess concentration, Gibbs equation); type: physicochemical
Text: The surface excess concentration at surface saturation (Γmax) is defined as a measure of the effectiveness of surfactant adsorption at the water/air interface and represents the maximum value to which adsorption can be obtained. Effectiveness of adsorption is related to the interfacial area occupied by the surfactant molecule. The smaller the effective cross-sectional area of a surfactant at the interface, the greater its effectiveness of adsorption. The effectiveness of adsorption is an important factor in determining surfactant properties such as detergency, foaming, wetting or emulsification. While not wishing to be bound by theory, it is believed that surfactants that absorb effectively at the interface tend have tightly packed coherent interfacial films and often provide better surfactant benefits than those with loosely packed noncoherent films. The effectiveness of adsorption of C8 /C10 oxypropyl D-gluconamide was determined using the Gibbs equation given as: […]
(∂γ/∂log[Conc])T

[8] = Surface tension at the water/air interface; type: physicochemical; settings: 60 °C
Protocol: An important characteristic feature that surfactants have is the tendency for them to absorb at the water/air interface in an oriented manner, thereby altering the interfacial free energy of that surface. The surface free energy per unit area or surface tension (T), is a measure of this work and may be considered as the minimum amount of work required to bring sufficient surfactant molecules to the surface.
The surface tension (t) value of C8 /C10 oxypropyl D-gluconamide was determined and is set forth below: […]

[9] = Packing parameter / micellar shape; type: physicochemical
Text: A theory of miceliar structure, based upon the geometry of various micelie shapes and the space occupied by the surfactant has been disclosed by J. N. Israelachvili, D. J. Mitchell and B. W. Ninham in the J. Chem. Soc. Faraday Trans. 2, 1525, 72, (1976) which is given as the packing parameter (p).
VT=V(CH3) +(nc -1)V(CH2) and represents the volume occupied by the hydrophobic groups in the miceIlar core at a given temperature.
1c =1.50+1.26 nc Å and represents the length of the hydrophobic group in the core.
am =area per molecule or the cross-sectional area occupied by the hydrophilic group at the interface.

[10] = Efficiency in surface tension reduction (pC20); type: physicochemical; settings: 60 °C
Text: Since surface tension reduction depends on the replacement of water molecules at the interface by surfactant molecules, the efficiency of a surfactant in reducing interfacial tension should reflect the concentration of surfactant at the interface relative to that in bulk liquid phase. […] This is defined as the negative logarithm of the bulk phase surfactant concentration necessary to reduce the surface tension of water by 20 dyn/cm and is given as:
C(-Δγ=20) =C20 is the bulk phase surfactant concentration necessary to reduce the surface tension of water by 20 dyn/cm.
In general, pC20 values are usually close to the minimum concentration needed to saturate the interface with surfactant molecules.

[11] = Clarity of prototype surfactant compositions (Example 87); type: physicochemical; settings: room temperature, 6 months
Protocol: The prototype shampoo composition is as follows:
(§1) The above formulations were prepared by admixing the above ingredients in listed order and heating the mixture to about 80° C. with rapid stirring. The mixture was then cooled to about 40° C., placed in a clear jar and stored at room temperature for 6 months.

zein = test system: zein
Text: The zein solubilization assay was developed to determine the biological effects of surfactants on the skin. The protein is normally in soluble in water, but can be brought into solution by interaction with surfactants. The extent of zein dissolved is related to the irritation potential (M. J. Schwinger, Kolloid-Z. Z. Poly., 233, 848, 1969). The greater the zein solubilization, the greater the irritation potential of that surfactant on the skin.
Thus, a 1% solution of surfactant (30 mls) was added to 1.5 g of zein and stirred at room temperature for 1 hour. Residual zein was collected and dried to constant weight. Differences between starting and residual weights were used to calculate % zein solubilized.

[12] = Viscosity enhancement of sodium/ammonium lauryl sulfate compositions (formulation Example 86); type: physicochemical; settings: 4.0% thickener, 2395/22
[13] = Viscosity of sodium lauryl sulfate compositions (Example 88); type: physicochemical; settings: for Viscosity: 22° C.
Protocol: The prototype surfactant composition is as follows:
as §1
It is well known that the viscosity of a liquid composition comprising of anionic surfactant can be modified by the addition of inorganic salts, such as sodium chloride. However, in the absence of an organic modifier, high levels of salt may be necessary to achieve the required viscosity which may lead to problems of storage at cold temperature or even salting out certain ingredients. In practice, however, the viscosity of a liquid composition is modified by the simultaneous addition of thickener and small amounts of inorganic salt (viscosity cobuilder). The combined effect is greater than either one alone. The viscosity of the above prototype surfactant composition comprising various amounts of heteroatom containing alkyl aldonamide compound is as follows: […]

[14] = Foam stability and enhancement of sodium/ammonium lauryl sulfate, Ross-Miles (Example 86); type: physicochemical; settings: 45° C., 4.0% foam stabilizer in sodium/ammonium lauryl sulfate composition
Protocol: The results were compared to identical compositions comprising petrochemically derived foam stabilizing agents, in particular, alkanolamides and alcohol ethoxylates. The prototype surfactant composition is as follows:
The compositions were prepared by admixing the ingredients in listed order with rapid stirring at 45--50° C. Foam stability and enhancement were measured at 0.1% based on sodium and ammonium lauryl sulfate (0.16% total solids) at 45° C. and 0 or 120 parts per million (ppm) hardness calcium:magnesium ion 2:1.

[15] = Foam stability and enhancement, Ross-Miles method (Example 85); type: physicochemical; settings: triolein/calcium stearate 1 g/L, 10:90 mole % with C12 LAS, 35° C., read after 30 minutes
Protocol: The triolein/calcium stearate mixture was dispersed to the above solutions using a high speed shear mixer at 60° C. and then cooled to 35 ° C. The triolein/calcium stearate mixture represents an extreme type of antifoam behavior found in sebum soil.
In the Ross-Miles method, 200 mL of a surfactant solution contained in a pipette of specified dimensions with a 2.9-mm-i.d. orifice is allowed to fall 90 cm onto 50 mL of the same solution contained in a cylindrical vessel maintained at a given temperature by means of a water jacket. The height of the foam produced in the cylindrical vessel is read after 30 minutes has elapsed.
The foam stability and enhancement of the heteroatom containing alkyl aldonamides was further determined using a 10:90 mole percent solution of C8 /C10 oxypropyl D-gluconamide (C8 C10 OPG): sodium dodecyl benzene sulfonate (C12 LAS) and compared to identical solutions of dodecyl D-gluconamide (C12 Gluc): sodium dodecyl benzene sulfonate in the presence and absence of the triolein/calcium stearate antifoam.

For CCCCCCCCCCCCNC(=O)[C@H](O)[C@@H](O)[C@H](O)[C@H](O)CO [C12 D-Gluconamide, dodecyl D-gluconamide], the “CMC (in words)” value [1] was “None (Insoluble)”, the “water solubility (in words)” value [2] was “insoluble in water” and the “Krafft Point (0.1%)” value (Krafft point) was 91 °C.
In the case of CCCCCCCCCCCCOCCOCCOCCOCCOCCOCCOCCOCCO [Dodecylocta(oxyethylene) Ether], the “Πcmc (surface pressure)” value ([3]; estimated by extrapolating a linear line) is given as 36.3 dyn/cm, the pC20 [4] is given as 5.20 and the “Γmax (surface excess concentration at surface saturation)” value (shortened to “Γmax”) ([5]; 25 °C) is given as 2.52 × 10^-10 mole/cm^2. The “Γmax” value ([5]; 40 °C) was 2.46 × 10^-10 mole/cm^2, the “Πcmc (surface pressure)” value ([6]; 25 °C) was 37.2 dyn/cm and the “Πcmc (surface pressure)” value ([6]; 40 °C) was 37.3 dyn/cm. The “Γmax” value ([7]; 60 °C, estimated by extrapolating a linear line) was 2.40 × 10^-10 mole/cm^2.
With C8 /C10 oxypropyl D-gluconamide the “Surface tension γ” value [8] was 29.2 dyn/cm, the CMC/C20 [3] was 5.7 and the “Πcmc (surface pressure)” value [3] was 38.5 dyn/cm. The “1a (length of the hydrophobic group in the core)” value ([9]; T=333.15 K) was 17.5 Å, the “micelles predicted from packing parameter” value ([9]; aqueous media) was “cylindrical to lameliar micelles” and the pC20 [10] was 4.78. The Appearance ([11]; 3.0% in […] sodium lauryl sulfate) was “Clear”, the Appearance ([11]; 4.0% in […] sodium lauryl sulfate) was “Clear” and the Appearance ([11]; 5.0% in […] sodium lauryl sulfate) was “Clear”. For the same molecule, the “% Zein Solubilized” value (zein) was 6%, the “Krafft Point (0.1%)” value (Krafft point) was 48 °C and the “increase of viscosity from its normal viscosity” value [12] was 109 times. The “slope of a plot of γ versus log[Conc]” value ([7]; T=333.15 K) was -24.57 ergs/cm^2, the “Viscosity Increase” value ([13]; 1.0% thickener) was 13 x and the Viscosity ([13]; 1.0% thickener) was 200 Centipoise. The “Viscosity Increase” value ([13]; 2.0% thickener) was 27 x, the Viscosity ([13]; 2.0% thickener) was 400 Centipoise and the “Viscosity Increase” value ([13]; 3.0% thickener) was 80 x. For the same molecule, the Viscosity ([13]; 3.0% thickener) was 1200 Centipoise, the “Viscosity Increase” value ([13]; 4.0% thickener) was 148 x and the Viscosity ([13]; 4.0% thickener) was 2220 Centipoise. For the same molecule, the “Viscosity Increase” value ([13]; 5.0% thickener) was 860 x and the Viscosity ([13]; 5.0% thickener) was 12900 Centipoise.
In the case of “cocoamide monoethanolamine [Cocoamide MEA]”, the “Final FH after 60 Min.” value ([14]; 0 ppm hardness) is reported as 70 mm and the “Final FH after 60 Min.” value ([14]; 120 ppm hardness) is reported as 53 mm.
With “sodium dodecyl benzene sulfonate [C12 LAS]” the “Foam Height, With Antifoam” value [15] was 61 mm.

Source: patent US5624906A, “Oral hygiene compositions comprising heteroatom containing alkyl aldonamide compounds” (Lever Brothers Company, Division of Conopco, Inc., priority 1994, dated 1997)
